Experimental data as given in patent publication US20240150334A1, “HSD17B13 INHIBITORS AND/OR DEGRADERS” (Pfizer Inc., priority 2022, published 2024).
pIC50: −log10 of the molar value. Each block holds one molecule with its values, some of them ahead of it.

How the values were obtained:
HSD17B13 enzyme = HSD17B13 enzyme (Homo sapiens (Human), UniProt Q7Z5P4); experiment: hHSD17B13 IC50 Assay (FAC beta-estradiol), purified protein enzyme activity assay with NAD(P)H-Glo luciferase readout; assay type: biochemical; conditions: geometric mean, 12 μM FAC beta-estradiol, 500 μM NAD+, read-out: hHSD17B13_IC50 GMean IC50
HSD17B13 enzyme, sequence (Q7Z5P4 20-300): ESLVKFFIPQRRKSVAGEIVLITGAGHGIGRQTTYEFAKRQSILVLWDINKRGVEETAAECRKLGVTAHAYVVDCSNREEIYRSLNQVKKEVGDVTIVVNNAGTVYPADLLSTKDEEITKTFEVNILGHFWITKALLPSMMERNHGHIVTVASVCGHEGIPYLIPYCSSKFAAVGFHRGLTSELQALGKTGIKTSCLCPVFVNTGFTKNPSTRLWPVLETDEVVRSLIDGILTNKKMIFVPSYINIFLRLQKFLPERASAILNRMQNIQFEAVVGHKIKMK
In short: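 Purified human HSD17B13 (30 nM FAC) incubated with compound, beta-estradiol and NAD+ for 2 h at room temperature in the dark. NADH formation was detected by NAD(P)H-Glo luminescence after 1 h. RLUs normalized to uninhibited enzyme (vehicle) as zero effect.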

wild type human HSD17B13 = wild type human HSD17B13 (Homo sapiens (Human), UniProt Q7Z5P4); experiment: HEK_Beta-Est LCMS_IC50_Tekcel, whole-cell HEK-HSD17B13 inhibition assay, estrone production by LCMS; assay type: cell-based; conditions: geometric mean, HEK cells stably expressing wild type human HSD17B13, 25 μM FAC beta-estradiol, read-out: HEK_Beta-Est LCMS_IC50—Tekcel GMean IC50
wild type human HSD17B13, sequence (Q7Z5P4 20-300): as above
In short: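 HEK cells expressing wild-type human HSD17B13 were preincubated with compound for 1 hour at 37° C, then the beta-estradiol/NAD+ reaction ran for 2 hours at 37° C. Estrone formed was quantified by LCMS as product area ratio and normalized to uninhibited vehicle-control wells.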

SMILES: COc1ncc(-c2ccc3cn([C@H]4CC[C@H](CNC(=O)c5cc(F)c(O)c(F)c5)CC4)nc3c2)cn1 [Example 73, 3,5-difluoro-4-hydroxy-N-({(1r,4r)-4-[6-(2-methoxypyrimidin-5-yl)-2H-indazol-2-yl]cyclohexyl}methyl) benzamide]
pIC50 (HSD17B13 enzyme): 7.89
pIC50 (wild type human HSD17B13): 6.77

SMILES: O=C(NC[C@H]1CC[C@H](n2cc3ccc(-c4ccccn4)cc3n2)CC1)c1cc(F)c(O)c(F)c1 [Example 75, 3,5-difluoro-4-hydroxy-N-({(1r,4r)-4-[6-(pyridin-2-yl)-2H-indazol-2-yl]cyclohexyl}methyl)benzamide]
pIC50 (HSD17B13 enzyme): 7.72
pIC50 (wild type human HSD17B13): 6.68

SMILES: O=C(NC[C@H]1CC[C@H](n2cc3ccc(-c4cncnc4)cc3n2)CC1)c1cc(F)c(O)c(F)c1 [Example 76, 3,5-difluoro-4-hydroxy-N-({(1r,4r)-4-[6-(pyrimidin-5-yl)-2H-indazol-2-yl]cyclohexyl}methyl)benzamide]
pIC50 (HSD17B13 enzyme): 7.72
pIC50 (wild type human HSD17B13): 6.72

SMILES: Cc1ncc(-c2ccc3cn([C@H]4CC[C@H](CNC(=O)c5cc(F)c(O)c(F)c5)CC4)nc3c2)cn1 [Example 77, 3,5-difluoro-4-hydroxy-N-({(1r,4r)-4-[6-(2-methylpyrimidin-5-yl)-2H-indazol-2-yl]cyclohexyl}methyl) benzamide]
pIC50 (HSD17B13 enzyme): 7.89
pIC50 (wild type human HSD17B13): 6.80

SMILES: COc1cccc2nn([C@H]3CC[C@H](CNC(=O)c4cc(F)c(O)c(F)c4)CC3)cc12 [Example 122, 3,5-difluoro-4-hydroxy-N-{[(1r,4r)-4-(4-methoxy-2H-indazol-2-yl)cyclohexyl]methyl} benzamide]
pIC50 (HSD17B13 enzyme): 7.85
pIC50 (wild type human HSD17B13): 6.51

SMILES: O=C(NC[C@]12CC[C@](n3cc4cc(C(F)(F)F)ccc4n3)(CC1)CC2)c1cc(F)c(O)c(F)c1 [Example 125, 3,5-difluoro-4-hydroxy-N-({4-[5-(trifluoromethyl)-2H-indazol-2-yl]bicyclo[2.2.2]octan-1-yl}methyl)benzamide]
pIC50 (HSD17B13 enzyme): 7.77
pIC50 (wild type human HSD17B13): 6.60

Now those with a higher pIC50 (HSD17B13 enzyme), led by results:

pIC50 (HSD17B13 enzyme): 8.42
pIC50 (wild type human HSD17B13): 6.72
SMILES: N#Cc1ccc(-c2ccc3cn([C@H]4CC[C@H](CNC(=O)c5cc(F)c(O)c(F)c5)CC4)nc3c2)cc1 [Example 70, N-({(1r,4r)-4-[6-(4-cyanophenyl)-2H-indazol-2-yl]cyclohexyl}methyl)-3,5-difluoro-4-hydroxybenzamide]

pIC50 (HSD17B13 enzyme): 8.02
pIC50 (wild type human HSD17B13): 6.37
SMILES: O=C(NC[C@H]1CC[C@H](n2cc3ccc(-c4ccnnc4)cc3n2)CC1)c1cc(F)c(O)c(F)c1 [Example 71, 3,5-difluoro-4-hydroxy-N-({(1r,4r)-4-[6-(pyridazin-4-yl)-2H-indazol-2-yl]cyclohexyl}methyl)benzamide]

pIC50 (HSD17B13 enzyme): 8.11
pIC50 (wild type human HSD17B13): 6.77
SMILES: O=C(NC[C@H]1CC[C@H](n2cc3ccc(-c4cccnc4)cc3n2)CC1)c1cc(F)c(O)c(F)c1 [Example 72, 3,5-difluoro-4-hydroxy-N-({(1r,4r)-4-[6-(pyridin-3-yl)-2H-indazol-2-yl]cyclohexyl}methyl) benzamide]

pIC50 (HSD17B13 enzyme): 7.92
pIC50 (wild type human HSD17B13): 6.77
SMILES: Cc1cnc(-c2ccc3cn([C@H]4CC[C@H](CNC(=O)c5cc(F)c(O)c(F)c5)CC4)nc3c2)nc1 [Example 74, 3,5-difluoro-4-hydroxy-N-({(1r,4r)-4-[6-(5-methylpyrimidin-2-yl)-2H-indazol-2-yl]cyclohexyl}methyl)benzamide]

pIC50 (HSD17B13 enzyme): 8.00
pIC50 (wild type human HSD17B13): 6.34
SMILES: Cc1ccc(-c2noc([C@]34CC[C@](CNC(=O)c5cc(F)c(O)c(F)c5)(CC3)CC4)n2)nn1 [Example 123, 3,5-difluoro-4-hydroxy-N-({4-[3-(6-methylpyridazin-3-yl)-1,2,4-oxadiazol-5-yl]bicyclo[2.2.2]octan-1-yl}methyl)benzamide]

pIC50 (HSD17B13 enzyme): 8.15
pIC50 (wild type human HSD17B13): 6.80
SMILES: COc1ccc(-c2noc([C@]34CC[C@](CNC(=O)c5cc(F)c(O)c(F)c5)(CC3)CC4)n2)nn1 [Example 124, 3,5-difluoro-4-hydroxy-N-({4-[3-(6-methoxypyridazin-3-yl)-1,2,4-oxadiazol-5-yl]bicyclo [2.2.2]octan-1-yl}methyl)benzamide]
